Experimental data from US10100050B2 (CHIESI FARMACEUTICI S.P.A., priority 2015, dated 2018).
Counter-ions that a name gives are not always drawn.

Columns and labels:
BEAS-2B cells = test: TNFα-stimulated BEAS-2B IL-8 release assay; type: cell-based; conditions: Homo sapiens, IC50 classes, TNF-α 10 ng/ml, 18 h, read-out: TNFα-stimulated BEAS-2B IL-8 release inhibition
Experimental: TNFα-Stimulated BEAS-2B IL-8 Release Assay
Human bronchial epithelial cell line BEAS-2B was purchased from Sigma (St. Louis, Mo.). BEAS-2B cells were cultured in Bronchial Epithelial cell Growth Medium (BEGM), prepared by supplementing Bronchial Epithelial Basal Medium with SingleQuotes™ (Lonza, Switzerland), which contains retinoic acid, epidermal growth factor, epinephrine, transferrin, triiodothyronin, insulin, hydrocortisone, antimicrobial agents, and bovine pituitary extract. In addition, BEGM medium was supplemented with 2 mM glutamine, 100 U penicillin and 100 μg/ml streptomycin (Life Technologies), in an atmosphere of 95% air and 5% CO2 at 37° C.
BEAS-2B were seeded in 48-well plates at the density of 3×10^4 cells per well, grown to approximately 80-90% confluence. Cells were pre-incubated with p38 inhibitors for 1 hour and then stimulated with TNF-α (10 ng/ml) for 18 h at 37° C. with 5% CO2. Subsequently, supernatants were collected and used for measuring IL-8 levels using a paired antibody quantitative ELISA kit purchased from Life Technologies (detection limit: […]). All the treatments were performed at least in quadruplicate.
A concentration-response curve to each test compound was performed and the effect of compound in each experiment was expressed as a percentage inhibition of the control IL-8 release. Compound potency (IC50) was calculated by the analysis of the sigmoidal dose-response curve (variable slope) elaborated by Graph Pad PRISM4 program.

p38alpha = target: T1, p38alpha (Homo sapiens, UniProt Q16539); test: P38alpha enzyme inhibition assay (Alphascreen kinase activity assay); type: biochemical; conditions: IC50 classes; 2 hours preincubation at 25° C., 250 μM ATP; read-out: p38α inhibition
T1 construct: purchased Invitrogen PV3304
Summary of the method: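 p38alpha with 0.3 μg/ml ATF-2 fusion protein in HEPES pH 7.5 buffer (10 mM MgCl2, 2 mM DTT, 1% DMSO); compounds preincubated 2 h at 25° C, then 250 μM ATP added for 1 h at 25° C. Phospho-ATF2 detected by AlphaScreen luminescence with anti-phospho-ATF2 antibody; IC50 from concentration-response curves.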

[1] = tested on: Peripheral Blood Mononuclear Cells (PBMCs); test: LPS-stimulated PBMC TNFα release assay; type: cell-based; conditions: IC50 classes; human PBMC, LPS 10 ng/ml, 18 h; read-out: LPS-stimulated PBMC TNFα release inhibition
Summary of the method: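 Human PBMCs from healthy donors, adhered 3 h in serum-free RPMI, received compound for 1 h in 1% FBS medium before 10 ng/ml LPS for 18 h. Supernatant TNFα was measured by MSD; IC50 from percentage inhibition of control release, at least three separate experiments.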

T1 sequence (Q16539 whole entry): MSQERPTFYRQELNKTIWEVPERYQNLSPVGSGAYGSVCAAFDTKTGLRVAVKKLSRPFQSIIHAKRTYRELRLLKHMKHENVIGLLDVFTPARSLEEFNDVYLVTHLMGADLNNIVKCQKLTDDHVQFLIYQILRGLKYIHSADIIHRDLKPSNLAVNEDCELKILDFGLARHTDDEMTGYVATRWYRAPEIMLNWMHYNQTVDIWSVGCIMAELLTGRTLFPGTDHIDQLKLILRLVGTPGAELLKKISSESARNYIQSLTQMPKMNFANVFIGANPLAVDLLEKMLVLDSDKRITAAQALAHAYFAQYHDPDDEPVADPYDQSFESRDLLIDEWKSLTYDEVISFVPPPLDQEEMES

| IC50 (p38alpha) | SMILES | IC50 (BEAS-2B cells) | IC50 [1] |
| --- | --- | --- | --- |
| 1 to 10 nM | CN1CCC[C@H]1c1nnc2ccc(O[C@@H]3CC[C@H](NC(=O)Nc4cc(N5CCOCC5)cc(C(C)(C)C)c4)c4ccccc43)cn12 [Example 58, 1-(3-tert-Butyl-5-morpholin-4-yl-phenyl)-3-{(1S,4R)-4-[3-((S)-1-methyl-pyrrolidin-2-yl)-[1,2,4]triazolo[4,3-a]pyridin-6-yloxy]-1,2,3,4-tetrahydro-naphthalen-1-yl}-urea] | 0.3 to 1 nM | > 5 nM |
| < 1 nM | CN1CCN(C(C)(C)c2nnc3ccc(O[C@@H]4CC[C@H](NC(=O)Nc5cc(NS(C)(=O)=O)cc(C(C)(C)C)c5)c5ccccc54)cn23)CC1 [Example 62, N-{3-tert-Butyl-5-[3-((1S,4R)-4-{3-[1-methyl-1-(4-methyl-piperazin-1-yl)-ethyl]-[1,2,4]triazolo[4,3-a]pyridin-6-yloxy}-1,2,3,4-tetrahydro-naphthalen-1-yl)-ureido]-phenyl}-methanesulfonamide] | > 1 nM | > 5 nM |
| < 1 nM | COc1c(CO)cc(C(C)(C)C)cc1NC(=O)N[C@H]1CC[C@@H](Oc2ccc3nnc([C@@H]4CCCN4C)n3c2)c2ccccc21 [Example 2, 1-(5-tert-Butyl-3-hydroxymethyl-2-methoxy-phenyl)-3-{(1S,4R)-4-[-3-((S)-1-methyl-pyrrolidin-2-yl)-[1,2,4]triazolo[4,3-a]pyridin-6-yloxy]-1,2,3,4-tetrahydro-naphthalen-1-yl}-urea] | < 0.3 nM | < 1 nM |
| 1 to 10 nM | COc1c(CO)cc(C(C)(C)C)cc1NC(=O)N[C@H]1CC[C@@H](Oc2ccc3nnc([C@@H]4CCCN4C(C)C)n3c2)c2ccccc21 [Example 6, 1-(5-tert-Butyl-3-hydroxymethyl-2-methoxy-phenyl)-3-{(1S,4R)-4-[3-((S)-1-isopropyl-pyrrolidin-2-yl)-[1,2,4]triazolo[4,3-a]pyridin-6-yloxy]-1,2,3,4-tetrahydro-naphthalen-1-yl}-urea] | < 0.3 nM | < 1 nM |
| < 1 nM | Cc1c(NC(=O)N[C@H]2CC[C@@H](Oc3ccc4nnc([C@]5(C)CCCN5C)n4c3)c3ccccc32)cc(C(C)(C)C)cc1NS(C)(=O)=O [Example 56, N-[5-tert-Butyl-3-(3-{(1S,4R)-4-[3-((S)-1,2-dimethyl-pyrrolidin-2-yl)-[1,2,4]triazolo[4,3-a]pyridin-6-yloxy]-1,2,3,4-tetrahydro-naphthalen-1-yl}-ureido)-2-methyl-phenyl]-methanesulfonamide] | < 0.3 nM | < 1 nM |
| 1 to 10 nM | COc1c(NC(=O)N[C@H]2CC[C@@H](Oc3ccc4nnc(C(C)(C)N(C)C)n4c3)c3ccccc32)cc(C(C)(C)C)cc1NS(=O)(=O)C1CC1 [Example 14, Cyclopropanesulfonic acid [5-tert-butyl-3-(3-{(1S,4R)-4-[3(1-dimethylamino-1-methyl-ethyl)-[1,2,4]triazolo[4,3-a]pyridin-6-yloxy]-1,2,3,4-tetrahydro-naphthalen-1-yl}-ureido)-2-methoxy-phenyl]-amide partial formate salt] | < 0.3 nM | < 1 nM |
| < 1 nM | C[C@H]1CCCCN1c1nnc2ccc(O[C@@H]3CC[C@H](NC(=O)Nc4cc(CN(CCO)CCO)cc(C(C)(C)C)c4)c4ccccc43)cn12 [Example 76, 1-(3-{[Bis-(2-hydroxy-ethyl)-amino]-methyl}-5-tert-butyl-phenyl)-3-{(1S,4R)-4-[3-((S)-2-methyl-piperidin-1-yl)-[1,2,4]triazolo[4,3-a]pyridin-6-yloxy]-1,2,3,4-tetrahydro-naphthalen-1-yl}-urea] | > 1 nM | 1 to 5 nM |
| < 1 nM | COc1c(CO)cc(C(C)(C)C)cc1NC(=O)N[C@H]1CC[C@@H](Oc2ccc3nnc(C(C)(C)N(C)C)n3c2)c2ccccc21 [Example 4, 1-(5-tert-Butyl-3-hydroxymethyl-2-methoxy-phenyl)-3-{(1S,4R)-4-[3-(1-dimethylamino-1-methyl-ethyl)-[1,2,4]triazolo[4,3-a]pyridin-6-yloxy]-1,2,3,4-tetrahydro-naphthalen-1-yl}-urea hydrochloride salt] | < 0.3 nM | < 1 nM |
